Publication PMC4865845, “A human genome-wide loss-of-function screen identifies effective chikungunya antiviral drugs” (Nature Communications, 2016)
Read-outs that look alike come from different tables or passages of the source.

Assays:
CHIKV = assay: microbe, parasite or virus in culture; format: cell-based, chikungunya virus; details: HEK-293 cells pretreated with dilutions of each drug, CHIKV-GFP, 18 h p.i.
HEK-293 cells = assay: Cell viability, Cell Proliferation Reagent WST-1; format: cell-based, human; details: read-out: WST-1 IC50
Description: To exclude the possible cytotoxic effects, all compounds were additionally tested using the ‘Cell Proliferation Reagent WST-1' (Roche Diagnostics). HEK-293 cells were treated with the same concentrations of the various substances and 18 h later WST-1 was added. Readout was conducted using the EnVision Multilabel Reader (PerkinElmer).

CLK1 = CLK1 (Homo sapiens, UniProt P49759); assay: CLK1 inhibition by capillary electrophoresis in a microfluidic chip system (LabChip3000); format: biochemical
Chain of CLK1 (P49759 whole entry): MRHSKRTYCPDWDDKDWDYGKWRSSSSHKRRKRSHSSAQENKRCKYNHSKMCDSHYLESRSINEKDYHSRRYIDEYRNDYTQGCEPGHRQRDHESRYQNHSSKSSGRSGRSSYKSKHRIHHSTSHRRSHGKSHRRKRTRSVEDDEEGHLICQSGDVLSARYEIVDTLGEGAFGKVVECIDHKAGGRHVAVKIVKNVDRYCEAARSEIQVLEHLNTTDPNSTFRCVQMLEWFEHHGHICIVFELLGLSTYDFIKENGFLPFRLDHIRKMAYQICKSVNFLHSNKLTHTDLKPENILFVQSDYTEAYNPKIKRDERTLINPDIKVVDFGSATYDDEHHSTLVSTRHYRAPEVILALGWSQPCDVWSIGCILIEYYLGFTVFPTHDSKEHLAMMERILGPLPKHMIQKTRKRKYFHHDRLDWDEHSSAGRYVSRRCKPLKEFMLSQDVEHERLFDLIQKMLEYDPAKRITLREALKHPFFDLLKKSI

CHIKV replicon = CHIKV replicon dual-luciferase assay (genomic and subgenomic vRNA expression); format: cell-based, chikungunya virus; details: HeLa cells, inhibitor from 1 h p.i., read 8 h p.i.
HeLa cells [1] = assay: Real-time cell toxicity assay (xCELLigence)
CHIKV C21 [2] = assay: Single-cycle CHIKV C21 infection, drug 2 h before or 2 h after infection (flow cytometry of capsid; supernatant infectivity on Vero cells); format: cell-based, chikungunya virus; details: single-cycle CHIKV infection, treatment before or after viral entry
HeLa cells [3] = assay: Cell viability, CellTiter-Glo kit; details: end of the 1 h infection + 7 h treatment experiment
CHIKV C21 [4] = assay: Quantitative RT-PCR of cell- and supernatant-associated vRNA; format: cell-based, chikungunya virus; details: HeLa; for vRNA synthesis (cell-associated vRNA) / viral release in the supernatants (supernatant-associated vRNA): CHIKV C21 MOI 50 for 1 h, then drug 7 h: cerulenin 50 μM, TOFA 25 μM, pimozide 10 μM, W7 20 μM, tivozanib 5 μM; for vRNA replication, delayed treatment / viral release, delayed treatment: CHIKV-infected, drugs from 6 to 8 h p.i.
CHIKV C21 [5] = assay: Intradermal CHIKV infection model of neonatal mice; details: neonatal mice
[6] = system: herpes simplex type 1 strain KOS (HSV-1); format: cell-based, herpes simplex virus 1; details: HEK-293 cells pretreated 2 h, Fig. 4
CHIKV C21 [7] = format: in vivo, C57BL/6 mice; details: adult mice pretreated at least 3 days (pimozide 20 mg kg−1 per os; TOFA 25 mg kg−1 i.p.), 18 h p.i.
[8] = HEK-293 cell viability, 18 h, * = treatment induced <50% cell death

Compound	IC50 (CHIKV; Chikungunya virus, HEK293) [µM]	IC50 (HEK-293 cells; Homo sapiens, HEK293, 18 h) [µM]	also measured
O=c1cc(-c2ccccc2)oc2ccc(O)cc12 [6-Hydroxyflavone]	2.6	> 60	
C=CC/C=C\C/C=C\CCCCCCCc1cccc(O)c1C(=O)O [(15:3)-Anacardic acid]			IC50 (CHIKV): 0.58 µM; IC50 (HEK-293 cells; [8]): 2.68 µM
O=C1Cc2c([nH]c3ccc([N+](=O)[O-])cc23)-c2ccccc2N1 [Alsterpaullone]	0.002	44.4	
CCCCn1c2cc(OC)c(Cl)cc2c2ccnc(C)c21 [AnnH14, 9-butyl-6-chloro-7-methoxy-1-methyl-9H-pyrido[3,4-b]indole]	1.55	10.6	IC50 (CLK1): 5.02 µM
COc1ccc2c(c1)[nH]c1c(/C=C/c3ccccc3)nccc12 [AnnH18, (E)-7-methoxy-1-(2-phenylethen-1-yl)-9H-pyrido[3,4-b]indole]	1.02	9.19	IC50 (CLK1): 0.575 µM
C#CCn1c2c(Br)nccc2c2ccc(Cl)c(Cl)c21 [AnnH80, 1-bromo-7,8-dichloro-9-(prop-2-yn-1-yl)-9H-pyrido[3,4-b]indole]			IC50 (CLK1): 0.862 µM; melting point: 190 to 193 °C
COc1ccc(-c2ccccc2)cc1NS(=O)(=O)c1cc(Cl)cc(Cl)c1O [BMS-303141]			genomic and subgenomic vRNA synthesis (CHIKV replicon): significant and dose-dependent reduction; effect on cell viability (HeLa cells [1]): no deleterious effect on cell viability
CO/C1=C\C(C)=C\[C@@H](C)[C@@H](O)[C@@H](C)C/C(C)=C/C=C/[C@H](OC)[C@@H]([C@@H](C)[C@@H](O)[C@H](C)[C@@]2(O)C[C@@H](O)[C@H](C)[C@@H](C(C)C)O2)OC1=O [Bafilomycin]			stage of the viral life cycle affected (CHIKV C21 [2]): specifically blocked CHIKV entry; IC50 (CHIKV): 0.000334 µM; IC50 (HEK-293 cells; [8]): 0.003 µM
C/C=C/C/C=C/CCC(=O)[C@H]1O[C@H]1C(N)=O [Cerulenin]	3	7.57	genomic and subgenomic vRNA synthesis (CHIKV replicon): significant and dose-dependent reduction; cell toxicity (HeLa cells [3]): no detectable cell toxicity; vRNA synthesis (cell-associated vRNA) (CHIKV C21 [4]): significantly reduced vRNA synthesis; viral release in the supernatants (supernatant-associated vRNA) (CHIKV C21 [4]): strongly inhibited viral release; vRNA replication, delayed treatment (CHIKV C21 [4]): only a minor impact on vRNA replication; viral release, delayed treatment (CHIKV C21 [4]): major defect in viral release; effect on cell viability (HeLa cells [1]): no deleterious effect on cell viability
CCOC(=O)C1=C(C)NC(C)=C(C(=O)OC)C1c1cccc(Cl)c1Cl (stereo not shown) [Felodipine]	3.24	12.1	
Cc1ccc(F)c(NC(=O)Nc2ccc(-c3cccc4[nH]nc(N)c34)cc2)c1 [Linifanib]	2.15	> 60	
CCCCCCCCCCC[C@@H](C[C@@H]1OC(=O)[C@H]1CCCCCC)OC(=O)[C@H](CC(C)C)NC=O [Orlistat]	0.82	8.67	
Cc1ccc(Nc2nccc(N(C)c3ccc4c(C)n(C)nc4c3)n2)cc1S(N)(=O)=O [Pazopanib]	0.13	1.32	
OCCN1CCN(CCCN2c3ccccc3Sc3ccc(Cl)cc32)CC1 [Perphenazine]	0.63	24.2	
O=c1[nH]c2ccccc2n1C1CCN(CCCC(c2ccc(F)cc2)c2ccc(F)cc2)CC1 [Pimozide]	0.28	19.2	impact on mouse growth (CHIKV C21 [5]): detectable impact on mouse growth; antiviral effect on HSV-1 [6]: antiviral effect; cell toxicity (HeLa cells [3]): no detectable cell toxicity; vRNA synthesis (cell-associated vRNA) (CHIKV C21 [4]): significantly reduced vRNA synthesis; viral release in the supernatants (supernatant-associated vRNA) (CHIKV C21 [4]): strongly inhibited viral release; vRNA replication, delayed treatment (CHIKV C21 [4]): only a minor impact on vRNA replication; viral release, delayed treatment (CHIKV C21 [4]): major defect in viral release; CHIKV titres in the footpad (replication) (CHIKV C21 [7]): significantly reduced replication
CC(Cc1ccccc1)NCCC(c1ccccc1)c1ccccc1 (stereo not shown) [Prenylamine]	2.39	16.5	
CNC(=O)c1cc(Oc2ccc(NC(=O)Nc3ccc(Cl)c(C(F)(F)F)c3)cc2)ccn1 [Sorafenib]	1.11	18.2	
